Here are results for 29 compounds from patent publication US11884647B2, “Compounds and methods for targeting pathogenic blood vessels” (THE REGENTS OF THE UNIVERSITY OF CALIFORNIA, priority 2019, dated 2024).

The test system of one test is tumor endothelial cells (LL/2 lung cancer tumor). Put plainly: Lung LL2 ex vivo model of tumor angiogenesis. Format: cell-based, mouse. To be noted: Lung LL2 ex vivo; Conc. 10 μm; 48 hrs. In short, it runs like this: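 Mouse LL2 tumor fragments (~0.5×0.5×0.3 mm) embedded in Matrigel and grown in endothelial growth medium at 37° C until endothelial outgrowth (about 4 days) before drug treatment. About 48 h after drug addition, stained 10 min with fluorescein diacetate/propidium iodide; live (green) and dead (red) cells imaged at 2× with fixed channel settings.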
As for `CCCCCCCCCCOc1ccc(S(=O)(=O)c2cnc3ccc([S+](C)[O-])cc3c2N2CCC(N3CCC(N4CCCCC4)CC3)CC2)cc1F` (stereo not shown) [compound 290, ([1,4′:1′,4″-terpiperidin]-1″-yl)-3-((4-(decyloxy)-3-fluorophenyl)sulfonyl)-6-(methylsulfinyl)quinoline], the “48 hrs (morphology observations after 48 hours)” value is “*** (100% of endothelial cells vesicularize in cell shape)”.

The test is the same for the next values; noted with them: Lung LL2 ex vivo; Conc. 10 μm; drug treatment two days.
`CCCCCCCCCCOc1ccc(S(=O)(=O)c2cnc3ccc([S+](C)[O-])cc3c2N2CCC(N3CCC(N4CCCCC4)CC3)CC2)cc1F` (stereo not shown) [compound 290, ([1,4′:1′,4″-terpiperidin]-1″-yl)-3-((4-(decyloxy)-3-fluorophenyl)sulfonyl)-6-(methylsulfinyl)quinoline] came in with a Cell death of 50%.

The same test, now with this note: Lung LL2 ex vivo; Conc. 20 μm; (24 hrs).
Consider `CCCCCCCCCCOc1ccc(S(=O)(=O)c2cnc3ccc([S+](C)[O-])cc3c2N2CCC(N3CCC(N4CCOCC4)CC3)CC2)cc1` (stereo not shown) [compound 286, 4-(1′-(3-((4-(decyloxy)phenyl)sulfonyl)-6-(methylsulfinyl)quinolin-4-yl)-[1,4′-bipiperidin]-4-yl)morpholine], for which the “Cell death (24 hrs)” value worked out at 0% and the “Morphology observations (24 hrs)” value is 0.
Take `CCCCCCCCCCOc1ccc(S(=O)(=O)c2cnc3ccc([S+](C)[O-])cc3c2N2CCC(N3CCC(N4CCCN(C)CC4)CC3)CC2)cc1` (stereo not shown) [compound 287, 3-((4-(decyloxy)phenyl)sulfonyl)-4-(4-(4-methyl-1,4-diazepan-1-yl)-[1,4′-bipiperidin]-1′-yl)-6-(methylsulfinyl)quinoline]: the “Cell death (24 hrs)” value is recorded as 40% and the “Morphology observations (24 hrs)” value was “* (50% or less of cells vesicularize in cell shape)”.
For `CCCCCCCCCCOc1ccc(S(=O)(=O)c2cnc3ccc([S+](C)[O-])cc3c2N2CCC(N3CCN(CCO)CC3)CC2)cc1F` (stereo not shown) [compound 291, 2-(4-(1-(3-((4-(decyloxy)-3-fluorophenyl)sulfonyl)-6-(methylsulfinyl)quinolin-4-yl)piperidin-4-yl)piperazin-1-yl)ethan-1-ol], the “Cell death (24 hrs)” value is recorded as 10% and the “Morphology observations (24 hrs)” value is on record as “* (50% or less of cells vesicularize in cell shape)”.
`CCCCCCCCCCOc1ccc(S(=O)(=O)c2cnc3ccc([S+](C)[O-])cc3c2N2CCC(N3CCC(N4CCN(CCO)CC4)CC3)CC2)cc1` (stereo not shown) [compound 292, 2-(4-(1′-(3-((4-(decyloxy)phenyl)sulfonyl)-6-(methylsulfinyl)quinolin-4-yl)-[1,4′-bipiperidin]-4-yl)piperazin-1-yl)ethan-1-ol]: the “Cell death (24 hrs)” value came to 10% and the “Morphology observations (24 hrs)” value is recorded as “* (50% or less of cells vesicularize in cell shape)”.

The test is the same for the next values; noted with them: Lung LL2 ex vivo; Conc. 40 μm; drug treatment two days.
On to `COc1ccc(S(=O)(=O)c2cnc3cc(OC)c(OC)cc3c2N2CCCN(c3nc4ccc(Cl)cc4s3)CC2)cc1` [compound 327, 6-chloro-2-(4-(6,7-dimethoxy-3-((4-methoxyphenyl)sulfonyl)quinolin-4-yl)-1,4-diazepan-1-yl)benzo[d]thiazole], for which the Cell death worked out at 20%.

Still in this test, the particulars now being: Mus musculus, Endothelial cell, 48 h, read-out: Cell death.
`CC(C)CCCC(C)CCOc1ccc(S(=O)(=O)c2cnc3ccc([S+](C)[O-])cc3c2N2CCC(N3CCN(CCO)CC3)CC2)cc1` (stereo not shown) [compound 284, 2-(4-(1-(3-((4-((3,7-dimethyloctyl)oxy)phenyl)sulfonyl)-6-(methylsulfinyl)quinolin-4-yl)piperidin-4-yl)piperazin-1-yl)ethan-1-ol]: the cytotoxicity at 10 µM turned out to be 10%.
With `CCCCCCCCCCOc1ccc(S(=O)(=O)c2cnc3ccc([S+](C)[O-])cc3c2N2CCC(N3CCC(N4CCN(C)CC4)CC3)CC2)cc1` (stereo not shown) [compound 285, 3-((4-(decyloxy)phenyl)sulfonyl)-4-(4-(4-methylpiperazin-1-yl)-[1,4′-bipiperidin]-1′-yl)-6-(methylsulfinyl)quinoline], the cytotoxicity at 10 µM came out at 60%.
Regarding `CCCCCCCCCCOc1ccc(S(=O)(=O)c2cnc3ccc([S+](C)[O-])cc3c2N2CCC(N3CCC(N4CCCC(O)C4)CC3)CC2)cc1` (stereo not shown) [compound 288, 1″-(3-((4-(decyloxy)phenyl)sulfonyl)-6-(methylsulfinyl)quinolin-4-yl)-[1,4′:1′,4″- terpiperidin]-3-ol], the cytotoxicity at 10 µM was 50%.
Turning to `CC(C)CCCC(C)CCOc1ccc(S(=O)(=O)c2cnc3ccc([S+](C)[O-])cc3c2N2CCC(N3CCC(N4CCCCC4)CC3)CC2)cc1` (stereo not shown) [compound 289, 4-([1,4′:1′,4″-terpiperidin]-1″-yl)-3-((4-((3,7-dimethyloctyl)oxy)phenyl)sulfonyl)-6-(methylsulfinyl)quinoline], the cytotoxicity at 20 µM worked out at 20%.
Take `CCN(c1c(S(=O)(=O)c2ccc(OC)cc2)cnc2cc(OC)c(OC)cc12)C(C)C` [compound 294, N-ethyl-N-isopropyl-6,7-dimethoxy-3-((4-methoxyphenyl)sulfonyl)quinolin-4-amine]: the cytotoxicity at 40 µM came out at 50%.
Still for that read-out and setting: in the case of `CCN(CC)CCN(CC)c1c(S(=O)(=O)c2ccc(OC)cc2)cnc2cc(OC)c(OC)cc12` [compound 296, N1-(6,7-dimethoxy-3-((4-methoxyphenyl)sulfonyl)quinolin-4-yl)-N1,N2,N2-triethylethane-1,2-diamine] it was 20%.
The same measure, in the same setting: in the case of `CCN(CC)CCC(C)Nc1c(S(=O)(=O)c2ccc(OC)cc2)cnc2cc(OC)c(OC)cc12` (stereo not shown) [compound 300, N3-(6,7-dimethoxy-3-((4-methoxyphenyl)sulfonyl)quinolin-4-yl)-N1,N1-diethylbutane-1,3-diamine] it was 20%; in that of `CCN(CC)CCCN1CCN(c2c(S(=O)(=O)c3ccc(OC)cc3)cnc3cc(OC)c(OC)cc23)CC1` [compound 302, 3-(4-(6,7-dimethoxy-3-((4-methoxyphenyl)sulfonyl)quinolin-4-yl)piperazin-1-yl)-N,N-diethylpropan-1-amine], 70%; in that of `COc1ccc(S(=O)(=O)c2cnc3cc(OC)c(OC)cc3c2N2C[C@@H]3C[C@H]2CN3C)cc1` [compound 306, 6,7-dimethoxy-3-((4-methoxyphenyl)sulfonyl)-4-((1S,4S)-5-methyl-2,5-diazabicyclo[2.2.1]heptan-2-yl)quinoline], 40%.
Still for that read-out and setting: the figure for `COc1ccc(S(=O)(=O)c2cnc3cc(OC)c(OC)cc3c2N2CCC(O)(c3ccccc3)CC2)cc1` [compound 308, 1-(6,7-dimethoxy-3-((4-methoxyphenyl)sulfonyl)quinolin-4-yl)-4-phenylpiperidin-4-ol] is 20%; for `CNC(=O)c1ccc(C2CCN(c3c(S(=O)(=O)c4ccc(OC)cc4)cnc4cc(OC)c(OC)cc34)CC2)cc1` [compound 310, 4-(1-(6,7-dimethoxy-3-((4-methoxyphenyl)sulfonyl)quinolin-4-yl)piperidin-4-yl)-N-methylbenzamide] it is 10%.
On to `COc1ccc(C2CCN(c3c(S(=O)(=O)c4ccc(OC)cc4)cnc4cc(OC)c(OC)cc34)CC2)cc1` [compound 311, 6,7-dimethoxy-4-(4-(4-methoxyphenyl)piperidin-1-yl)-3-((4-methoxyphenyl)sulfonyl)quinoline], for which the cytotoxicity at 40 µM came out at 30%.
On the same count and under the same terms, in the case of `COc1ccc(S(=O)(=O)c2cnc3cc(OC)c(OC)cc3c2N2CCC(c3ccc(CN4CCCC4)cc3)CC2)cc1` [compound 312, 6,7-dimethoxy-3-((4-methoxyphenyl)sulfonyl)-4-(4-(4-(pyrrolidin-1-ylmethyl)phenyl)piperidin-1-yl)quinoline] it was 100%.
Same read-out and setting: the figure for `CCOC(=O)c1ccc(N2CCN(c3c(S(=O)(=O)c4ccc(OC)cc4)cnc4cc(OC)c(OC)cc34)CC2)cc1` [compound 317, ethyl 4-(4-(6,7-dimethoxy-3-((4-methoxyphenyl)sulfonyl)quinolin-4-yl)piperazin-1-yl)benzoate] is 30%; for `COc1ccc(N2CCN(c3c(S(=O)(=O)c4ccc(OC)cc4)cnc4cc(OC)c(OC)cc34)CC2=O)cc1` [compound 318] it is 30%; for `COc1ccc(S(=O)(=O)c2cnc3cc(OC)c(OC)cc3c2N2CCC(N3CCCCC3)CC2)cc1` [compound 320, 4-([1,4′-bipiperidin]-1′-yl)-6,7-dimethoxy-3-((4-methoxyphenyl)sulfonyl)quinoline] it is 30%.
Consider `COc1ccc(S(=O)(=O)c2cnc3cc(OC)c(OC)cc3c2N2CCC(N3CCCC3=O)CC2)cc1` [compound 321, 1-(1-(6,7-dimethoxy-3-((4-methoxyphenyl)sulfonyl)quinolin-4-yl)piperidin-4-yl)pyrrolidin-2-one], for which the cytotoxicity at 40 µM came to 40%.
On to `COc1ccc(S(=O)(=O)c2cnc3cc(OC)c(OC)cc3c2N2CCC(N3CCCC3CO)CC2)cc1` (stereo not shown) [compound 322, (1-(1-(6,7-dimethoxy-3-((4-methoxyphenyl)sulfonyl)quinolin-4-yl)piperidin-4-yl)pyrrolidin-2-yl)methanol], for which the cytotoxicity at 40 µM was determined as 30%.
On the same count and under the same terms, in the case of `COc1ccc(S(=O)(=O)c2cnc3cc(OC)c(OC)cc3c2N2CCCN(CCO)CC2)cc1` [compound 323, 2-(4-(6,7-dimethoxy-3-((4-methoxyphenyl)sulfonyl)quinolin-4-yl)-1,4-diazepan-1-yl)ethan-1-ol] it was 30%; in that of `COc1ccc(S(=O)(=O)c2cnc3cc(OC)c(OC)cc3c2N2CCC3C(COCCN3CC(C)C)C2)cc1` (stereo not shown) [compound 324, 7-(6,7-dimethoxy-3-((4-methoxyphenyl)sulfonyl)quinolin-4-yl)-1-isobutyldecahydropyrido[4,3-e][1,4]oxazepine], 60%; in that of `COc1ccc(S(=O)(=O)c2cnc3cc(OC)c(OC)cc3c2N2CCCN(CC3(O)CCCC3)CC2)cc1` [compound 325, 1-((4-(6,7-dimethoxy-3-((4-methoxyphenyl)sulfonyl)quinolin-4-yl)-1,4-diazepan-1-yl)methyl)cyclopentan-1-ol], 30%.
Take `COc1ccc(S(=O)(=O)c2cnc3cc(OC)c(OC)cc3c2N2CCCN(C3COC3)CC2)cc1` [compound 326, 6,7-dimethoxy-3-((4-methoxyphenyl)sulfonyl)-4-(4-(oxetan-3-yl)-1,4-diazepan-1-yl)quinoline]: the cytotoxicity at 40 µM was found to be 30%.
With `COc1ccc(S(=O)(=O)c2cnc3cc(OC)c(OC)cc3c2N2CCC(=O)N(C)CC2)cc1` [compound 328, 1-(6,7-dimethoxy-3-((4-methoxyphenyl)sulfonyl)quinolin-4-yl)-4-methyl-1,4-diazepan-5-one], the cytotoxicity at 40 µM is 30%.
